Experimental findings from patent publication US20240279283A1, “CYCLIC PEPTIDE ANTIBIOTICS” (priority 2021, published 2024) are described below.

What all share (assay type): cell-based
Common to all, as to conditions: LB broth, 5×10^5 CFU/ml, 37° C., 18 hours, scored by eye

In one test the test system is K. pneumoniae ATCC43816. Description: Minimum Inhibitory Concentration (MIC) determination, K. pneumoniae ATCC43816. Set-up: unit not given here. How it is done: (§1) MICs were determined by performing two-fold serial dilutions of peptides in LB broth to a final volume of 0.1 ml in round-bottom 96-well assay plates (Corning Life Sciences No 3788). Peptides were initially resuspended in 100% DMSO to 10 mM and subsequently diluted in LB medium to the appropriate concentration. Each well was inoculated with 5×10^5 CFU/ml of the screening stain and incubated at 37° C. without agitation for 18 hours. Plates were scored by eye, and the lowest compound concentration preventing visible growth was determined to be the MIC.

Another test relates to E. cloacae ATCC222. Description: Minimum Inhibitory Concentration (MIC) determination, E. cloacae ATCC222. Set-up: unit not given here. How it is done: as §1
The subject of a further test is E. coli 25922 IMP. Description: Minimum Inhibitory Concentration (MIC) determination, E. coli 25922 IMP. Summed up:
(§2)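 Peptides, diluted two-fold in LB broth from 10 mM DMSO stocks, were inoculated with 5×10^5 CFU/ml of each strain. Incubation was 18 h at 37 °C without shaking. MIC is the lowest concentration preventing visible growth, scored by eye.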

A further test concerns E. coli 25922. Description: Minimum Inhibitory Concentration (MIC) determination, E. coli 25922. Also on record: unit not given here. How it is done:
as §1

The next test relates to E. coli BW25113. Description: Minimum Inhibitory Concentration (MIC) determination, E. coli BW25113. Set-up: unit not given here. Put shortly:
as §2

The structures appear in SMILES notation. Bridge positions count the residues as written; N and C are the ends. Square brackets hold non-standard residues; d marks the D form. Peptide text beside a SMILES is read from it. NMePhe(4-Cl) = CN[C@@H](Cc1ccc(Cl)cc1)C(=O)O; Phe(4-Cl) = N[C@@H](Cc1ccc(Cl)cc1)C(=O)O; 1Nal = N[C@@H](Cc1cccc2ccccc12)C(=O)O; d1Nal = N[C@H](Cc1cccc2ccccc12)C(=O)O; dHis(π-Me) = Cn1cncc1C[C@@H](N)C(=O)O; His(π-Me) = Cn1cncc1C[C@H](N)C(=O)O; NMeY = CN[C@@H](Cc1ccc(O)cc1)C(=O)O; dNMeY = CN[C@H](Cc1ccc(O)cc1)C(=O)O; dAbu = CC[C@@H](N)C(=O)O; Abu = CC[C@H](N)C(=O)O; Aib = CC(C)(N)C(=O)O

As for `CC[C@@H]1NC(=O)[C@H](CO)NC(=O)CSC[C@@H](C(=O)NCC(N)=O)NC(=O)[C@H](Cc2cncn2C)NC(=O)[C@H](CCCNC(=N)N)NC(=O)[C@H](Cc2c[nH]cn2)NC(=O)[C@H](Cc2ccc(O)cc2)N(C)C(=O)[C@H](CCCNC(=N)N)NC(=O)[C@H](CO)NC(=O)CNC(=O)[C@H](Cc2c[nH]cn2)NC(=O)[C@H](Cc2cccc3ccccc23)NC1=O` [Compound 21, (3R,6S,9S,12S,15S,18S,21S,27S,30S, 33S,36S)-N-(2-amino-2-oxo-ethyl)-33-ethyl-9,18-bis(3-guanidinopropyl)-21,36-bis(hydroxymethyl)-15-[(4-hydroxyphenyl)methyl]-12,27-bis(1H-imidazol-4-ylmethyl)-16-methyl-6-[(3-methylimidazol-4-yl)methyl]-30-(1-naphthylmethyl)-5,8,11,14,17,20,23,26,29,32,35,38-dodecaoxo-1-thia-4,7,10,13,16,19,22,25,28,31,34,37-dodecazacyclononatriacontane-3-carboxamide] ({CH2CO}-S[Abu][1Nal]HGSR[NMeY]HR[His(π-Me)]CG-NH2; thioether N-12), the “MIC K. pneumoniae ATCC43816 Wuxi::MIC” value in the test on K. pneumoniae ATCC43816 worked out at 25. In addition, the “MIC E. cloacae ATCC222 WUXI::MIC” value in the test with E. cloacae ATCC222 is listed as 3.1. In the test on E. coli 25922 IMP, the “MIC E. coli 25922 IMP WUXI::MIC” value is recorded as 0.063. Also, the “MIC E. coli 25922 WUXI::MIC” value in the test with E. coli 25922 is given as 50. The “MIC E. coli BW25113 WUXI::MIC” value against E. coli BW25113 turned out to be 50.
For the molecule `CC[C@H]1NC(=O)[C@@H](Cc2ccccc2)NC(=O)CSC[C@H](C(=O)NCC(N)=O)NC(=O)[C@@H](Cc2cncn2C)NC(=O)[C@@H](CCCNC(=N)N)NC(=O)[C@@H](Cc2c[nH]cn2)NC(=O)[C@@H](Cc2ccc(O)cc2)N(C)C(=O)[C@@H](CCCNC(=N)N)NC(=O)[C@@H](CO)NC(=O)[C@@H](CCCNC(=N)N)NC(=O)[C@@H](Cc2c[nH]cn2)NC(=O)[C@@H](Cc2cccc3ccccc23)NC1=O` [Compound 28] ({CH2CO}-[dF][dAbu][d1Nal][dH][dR][dS][dR][dNMeY][dH][dR][dHis(π-Me)][dC]G-NH2; thioether N-12), the “MIC K. pneumoniae ATCC43816 Wuxi::MIC” value against K. pneumoniae ATCC43816 came to 3.1. The “MIC E. cloacae ATCC222 WUXI::MIC” value in the test with E. cloacae ATCC222 is 0.2. Moreover, in the test on E. coli 25922 IMP, the “MIC E. coli 25922 IMP WUXI::MIC” value came out at 0.002. Moreover, the “MIC E. coli 25922 WUXI::MIC” value in the test with E. coli 25922 is listed as 3.1. Further, the “MIC E. coli BW25113 WUXI::MIC” value in the test on E. coli BW25113 came to 6.3.
For `CC[C@@H]1NC(=O)[C@H](Cc2ccccc2)NC(=O)CSC[C@@H](C(=O)NCC(N)=O)NC(=O)[C@H](Cc2cncn2C)NC(=O)[C@H](CCCNC(=N)N)NC(=O)[C@H](Cc2c[nH]cn2)NC(=O)[C@H](Cc2ccc(O)cc2)N(C)C(=O)[C@H](CCCNC(=N)N)NC(=O)[C@H](CO)NC(=O)[C@@H](CO)NC(=O)[C@H](Cc2c[nH]cn2)NC(=O)[C@H](Cc2cccc3ccccc23)NC1=O` [Compound 27] ({CH2CO}-F[Abu][1Nal]H[dS]SR[NMeY]HR[His(π-Me)]CG-NH2; thioether N-12), the “MIC K. pneumoniae ATCC43816 Wuxi::MIC” value against K. pneumoniae ATCC43816 was determined as 13. In addition, the “MIC E. cloacae ATCC222 WUXI::MIC” value in the test with E. cloacae ATCC222 is listed as 0.39. Also, in the test on E. coli 25922 IMP, the “MIC E. coli 25922 IMP WUXI::MIC” value is 0.002. The “MIC E. coli 25922 WUXI::MIC” value against E. coli 25922 came out at 3.1. Besides, the “MIC E. coli BW25113 WUXI::MIC” value against E. coli BW25113 worked out at 13.
For the molecule `CC[C@@H]1NC(=O)[C@H](Cc2ccccc2)NC(=O)CSC[C@@H](C(=O)NCC(N)=O)NC(=O)[C@H](Cc2cncn2C)NC(=O)[C@H](CCCNC(=N)N)NC(=O)[C@H](Cc2cnc[nH]2)NC(=O)[C@H](Cc2ccc(O)cc2)N(C)C(=O)[C@H](CCCNC(=N)N)NC(=O)[C@H](CO)NC(=O)CNC(=O)[C@H](Cc2cnc[nH]2)NC(=O)[C@H](Cc2cccc3ccccc23)NC1=O` (racemic) [Compound 16], in the test with K. pneumoniae ATCC43816, the “MIC K. pneumoniae ATCC43816 Wuxi::MIC” value worked out at 8.5333. Also, the “MIC E. cloacae ATCC222 WUXI::MIC” value against E. cloacae ATCC222 came to 0.2633. In addition, the “MIC E. coli 25922 IMP WUXI::MIC” value against E. coli 25922 IMP is 1.577. Also, in the test with E. coli 25922, the “MIC E. coli 25922 WUXI::MIC” value was 27.32. The “MIC E. coli BW25113 WUXI::MIC” value against E. coli BW25113 was determined as 14.767.
The matching figures for `CC[C@@H]1NC(=O)[C@H](Cc2ccccc2)NC(=O)CSC[C@@H](C(=O)NCC(N)=O)NC(=O)[C@H](Cc2cncn2C)NC(=O)[C@H](CCCNC(=N)N)NC(=O)[C@H](Cc2c[nH]cn2)NC(=O)[C@H](Cc2ccc(O)cc2)N(C)C(=O)[C@H](CCCNC(=N)N)NC(=O)[C@H](CO)NC(=O)[C@@H](C)NC(=O)[C@H](Cc2c[nH]cn2)NC(=O)[C@H](Cc2cccc3ccccc23)NC1=O` [Compound 26] ({CH2CO}-F[Abu][1Nal]H[dA]SR[NMeY]HR[His(π-Me)]CG-NH2; thioether N-12): 25, 0.78, 0.0039, 3.1 and 6.3.
The like results for `CC[C@@H]1NC(=O)[C@H](Cc2ccccc2)NC(=O)CSC[C@@H](C(=O)NCC(N)=O)NC(=O)[C@H](Cc2cncn2C)NC(=O)[C@H](CCCNC(=N)N)NC(=O)[C@H](Cc2c[nH]cn2)NC(=O)[C@H](Cc2ccc(Cl)cc2)N(C)C(=O)[C@H](CCCNC(=N)N)NC(=O)[C@H](CO)NC(=O)CNC(=O)[C@H](Cc2c[nH]cn2)NC(=O)[C@H](Cc2cccc3ccccc23)NC1=O` [Compound 33] ({CH2CO}-F[Abu][1Nal]HGSR[NMePhe(4-Cl)]HR[His(π-Me)]CG-NH2; thioether N-12) were, in that order, 25, 1.6, 0.0005, 13 and 25.
The matching figures for `CC[C@H](C)[C@@H]1NC(=O)[C@H]([C@@H](C)O)NC(=O)[C@H](Cc2cncn2C)NC(=O)[C@H](Cc2ccccc2)NC(=O)CSC[C@@H](C(=O)NCC(N)=O)NC(=O)[C@H](Cc2ccc(O)cc2)NC(=O)[C@H](Cc2c[nH]c3ccccc23)NC(=O)[C@H](Cc2ccc(O)cc2)NC(=O)[C@H](Cc2cncn2C)NC(=O)[C@H](Cc2ccccc2)NC(=O)C(C)(C)NC(=O)[C@H](CCCNC(=N)N)NC(=O)[C@H](CCCCN)NC(=O)[C@H](CCCNC(=N)N)NC1=O` [Compound 51] ({CH2CO}-F[His(π-Me)]TIRKR[Aib]F[His(π-Me)]YWYCG-NH2; thioether N-14): above 32, above 32, 0.5, 8 and 8.
Turning to `CC[C@@H]1NC(=O)[C@H](Cc2ccc(Cl)cc2)NC(=O)CSC[C@@H](C(=O)NCC(N)=O)NC(=O)[C@H](Cc2cncn2C)NC(=O)[C@H](CCCNC(=N)N)NC(=O)[C@H](Cc2c[nH]cn2)NC(=O)[C@H](Cc2ccc(O)cc2)N(C)C(=O)[C@H](CCCNC(=N)N)NC(=O)[C@H](CO)NC(=O)CNC(=O)[C@H](Cc2c[nH]cn2)NC(=O)[C@H](Cc2cccc3ccccc23)NC1=O` [Compound 22] ({CH2CO}-[Phe(4-Cl)][Abu][1Nal]HGSR[NMeY]HR[His(π-Me)]CG-NH2; thioether N-12), in the test on K. pneumoniae ATCC43816, the “MIC K. pneumoniae ATCC43816 Wuxi::MIC” value came out at 13. Besides, the “MIC E. cloacae ATCC222 WUXI::MIC” value in the test with E. cloacae ATCC222 stood at 0.39. Besides, the “MIC E. coli 25922 IMP WUXI::MIC” value in the test with E. coli 25922 IMP was found to be 0.002. Besides, the “MIC E. coli 25922 WUXI::MIC” value in the test with E. coli 25922 came to 6.3. The “MIC E. coli BW25113 WUXI::MIC” value with E. coli BW25113 came to 25.
The like results for `CC[C@@H]1NC(=O)[C@H](Cc2ccc(O)cc2)NC(=O)CSC[C@@H](C(=O)NCC(N)=O)NC(=O)[C@H](Cc2cncn2C)NC(=O)[C@H](CCCNC(=N)N)NC(=O)[C@H](Cc2c[nH]cn2)NC(=O)[C@H](Cc2ccc(O)cc2)N(C)C(=O)[C@H](CCCNC(=N)N)NC(=O)[C@H](CO)NC(=O)CNC(=O)[C@H](Cc2c[nH]cn2)NC(=O)[C@H](Cc2cccc3ccccc23)NC1=O` [Compound 19, (3R,6S,9S,12S,15S,18S,21S,27S,30S, 33S,36S)-N-(2-amino-2-oxo-ethyl)-33-ethyl-9,18-bis(3-guanidinopropyl)-21-(hydroxymethyl)-15,36-bis[(4-hydroxyphenyl)methyl]-12,27-bis(1H-imidazol-4-ylmethyl)-16-methyl-6-[(3-methylimidazol-4-yl)methyl]-30-(1-naphthylmethyl)-5,8,11,14,17,20,23,26,29,32,35,38-dodecaoxo-1-thia-4,7,10,13,16,19,22,25,28,31,34,37-dodecazacyclononatriacontane-3-carboxamide] ({CH2CO}-Y[Abu][1Nal]HGSR[NMeY]HR[His(π-Me)]CG-NH2; thioether N-12) were, in that order, 6.3, 0.39, 0.0039, 3.1 and 6.3.
The like results for `CC[C@@H]1NC(=O)[C@H](Cc2ccccc2)NC(=O)CSC[C@@H](C(=O)NCC(N)=O)NC(=O)[C@H](Cc2cncn2C)NC(=O)[C@H](C)NC(=O)[C@H](Cc2c[nH]cn2)NC(=O)[C@H](Cc2ccc(O)cc2)N(C)C(=O)[C@H](CCCNC(=N)N)NC(=O)[C@H](CO)NC(=O)CNC(=O)[C@H](Cc2c[nH]cn2)NC(=O)[C@H](Cc2cccc3ccccc23)NC1=O` (stereo in doubt) [Compound 38] were, in that order, 100, 13, 0.063, 100 and 100.
